Assays:
mouse xenograft model = settings: cited from earlier work
patients = settings: higher doses (up to 57 mg/m^2), once-every-21-days dosing schedule; cited from earlier work
[1] = system: Rb protein phosphorylation; assay: Immunohistochemistry for phospho-Rb in skin biopsies; assay type: in vivo, human
Procedure: . The phosphorylation status of the Rb protein in the proliferative layer of skin and in the proliferating cells at the base of hair follicles was determined by IHC utilizing a rabbit anti-phospho-Rb antibody diluted to 0.83 μg/mL or 0.67 μg/mL. Immunohistochemistry staining was scored 0 (no staining relative to background), 1+ (weak staining), 2+ (moderate staining), or 3+ (strong staining); H-score was calculated as a measure of overall immunoreactivity in a given sample, using the following formula: H-score = (% of cells with 3+) × 3 + (% of cells with 2+) × 2 + (% of cells with 1+) × 1. Subjects were to be categorized as responders if no degree of staining was detected with the anti-phospho-Rb antibody.

[2] = system: myeloma and NSCLC mouse xenograft models; settings: at a dose 33% of the MAD; cited from earlier work
[3] = system: metabolically active sites of disease; assay: FDG-PET/CT tumor metabolic activity (SUVmax); settings: RP2D 12 mg/m^2, 10 evaluable subjects; responder = SUVmax decrease greater than 30%; 2-sided 95% CI: 0.3%, 44.5%
From the text: Metabolic activity data were obtained for research use only and were not used for clinical management of subjects.

SMILES: CCc1cnn2c(NCc3ccc[n+]([O-])c3)cc(N3CCCC[C@H]3CCO)nc12 [dinaciclib]
- minimum effective dose, defined as >50% tumor growth inhibition (mouse xenograft model): 5 mg/kg
- DLT (patients): Neutropenia
- mean phospho-Rb H score following treatment ([1]; RP2D 12 mg/m^2, 11 subjects, skin biopsy 4 hours after treatment, before treatment 18.55): 17.64
- response based on phospho-Rb staining ([1]; responder = complete loss of phospho-Rb staining): no subjects were deemed to have achieved a response
- tumor response in xenograft models [2]: complete tumor regression
- PET/CT response rate [3]: 10.0%
